The subject of this assay is autochthonous seawater bacteria. Description: Bacterial growth potential of antiscalants in natural seawater with an autochthonous bacterial population (flow cytometry). The class given is cell-based. The note with it: 50 mg L^−1 antiscalant, Red Sea water, 30° C. dark, 8 days, one-tail Wilcoxon signed-rank test. Here is the method: The natural seawater was serially filtered to remove microbial cells and to set a desired low initial cell concentration for the growth potential assay within approximately 10,000 to 20,000 bacterial cells mL^−1. This seawater was used in the method of the present disclosure.
Natural seawater (1.0 L) was serially filtered through pre-cleaned 0.45 μm pore size and 0.2 μm pore size polyethersulfone filters (Satorius Stedium Minisart). The filters were replaced every 100 mL.
30 mL of the resulting filtered seawater with a bacterial cell concentration of 21,000±1200 cells mL^−1 was added to AOC-free 40 mL borosilicate glass vials with screw caps containing PTFE-lined silicone septa.
Antiscalants from the 8 stock solutions (3 g L^−1) were added to 8 vials to obtain 8 mixtures comprising the antiscalant at a final concentration of 50 mg L^−1.
Vials with no antiscalant addition were included as a control.
The vials were incubated at 30° C. in the dark and bacterial growth was determined by measuring cell concentrations over time using flow cytometry. Each growth potential test was conducted in three independent biological replicates.
Flow cytometry (FCM) was used to measure the bacterial cell concentration in the vials at an interval of 24 h.
To this end, 5.0 μL SYBR Green I (Invitrogen, 100× diluted in 10 mM Tris buffer pH=8.1) were added to a final 0.5 mL vial samples in amber microfuge tubes followed by mixing and incubation for 10 min in the dark at 35° C.
Stained cells were measured with a BD Accuri C6 instrument in fixed 50 μL volume mode with a sample flow rate of 35 μL min^−1. The blue 488 nm laser (50 mW) was used to collect the green fluorescence at FL1=533 30 nm, the red fluorescence FL3>670 nm, as well as intrinsic cell parameters were given by the side scattered (SSH) and forward scattered (FSH) light signals. Electronic gating was used to separate positive microbial stained signals from instrument, and water background noise as described by Prest et al. (2013).
The instrument performance was verified using Spherotech 8-peak validation beads. […]
For orientation: Flow cytometry measures light scatter and fluorescence of single cells or particles in a stream.
`O=P(O)(O)CN(CCCCCCN(CP(=O)(O)O)CP(=O)(O)O)CP(=O)(O)O` [HDTMP, hexamethylenediamine-tetra(methylenephosphonic acid)]: the “bacterial growth compared to reference without antiscalant” value is “promoted bacterial growth”.

Take `CC(O)(P(=O)(O)O)P(=O)(O)O` [HEDP, 1-hydroxyethylidene-(1,1-diphosphonic acid)]: the “bacterial growth compared to reference without antiscalant” value is recorded as “did not promote bacterial growth”.

Turning to `O=P(O)(O)CN(CP(=O)(O)O)CP(=O)(O)O` [ATMP, amino trimethylene phosphonic acid], the “bacterial growth compared to reference without antiscalant” value was “promoted bacterial growth”.

(Values after patent US20250270615A1, “METHOD FOR DETECTING THE MICROBIAL GROWTH POTENTIAL OF AN ANTISCALANT COMPOSITION IN NATURAL SEAWATER” (ACWA POWER Company, priority 2024, published 2025).)
